{
  "source": "patent EP0639971B1",
  "about": "“THERAPEUTIC COMBINATIONS” (priority 1992, dated 1993)",
  "assay_type_in_all_cases": "cell-based",
  "key": {"[1]": {"test_system": "zidovudine-resistant HIV strain (HIVRTMC) with M184 to V mutation", "experiment": "Antiviral sensitivity (IC50) of zidovudine-resistant HIV strain with M184 to V mutation introduced", "settings": "Human immunodeficiency virus 1"}, "[2]": {"test_system": "zidovudine-resistant virus with Y181 to C, together with M184 to V", "experiment": "Antiviral sensitivity (IC50) of zidovudine-resistant HIV strain with Y181 to C and M184 to V mutations introduced"}, "[3]": {"test_system": "zidovudine-resistant HIV strain (HIVRTMC)", "experiment": "Antiviral sensitivity (IC50) of zidovudine-resistant HIV strain", "settings": "Human immunodeficiency virus 1; HIVRTMC before introduction of mutation"}, "[4]": {"test_system": "HIV-1 population containing four mutations in the HIV-RT which confer zidovudine resistance", "experiment": "Passage of zidovudine-resistant HIV-1 in cell culture with increasing concentrations of Chloro-TIBO; antiviral sensitivity (IC50)"}, "HIV": {"test_system": "HIV", "experiment": "In vitro passage experiments: acquisition of resistance to oxathiolane nucleosides"}},
  "note": "pIC50: −log10 of the molar value.",
  "data": [
    {"smiles": "Cc1cn([C@H]2C[C@H](N=[N+]=[N-])[C@@H](CO)O2)c(=O)[nH]c1=O", "note": "[zidovudine, 3'-azido-3'-deoxythymidine]", "values": [
      {"measurement": "pIC50", "setting": "[1]", "value": 6.77},
      {"measurement": "sensitivity / resistance of the resulting mutant virus strain", "setting": "[2]", "value": "completely sensitive"},
      {"measurement": "pIC50", "setting": "[2]; Human immunodeficiency virus 1", "value": 7.40},
      {"measurement": "pIC50", "setting": "[3]", "value": 5.90},
      {"measurement": "pIC50", "setting": "[4]; Human immunodeficiency virus 1, after five passages with Chloro-TIBO", "value": "> 7.00"},
      {"measurement": "pIC50", "setting": "[4]; Human immunodeficiency virus 1, before passage with Chloro-TIBO", "value": "~5.70"},
      {"measurement": "increase of sensitivity of the virus population to zidovudine", "setting": "[4]; after five passages with increasing concentrations of Chloro-TIBO", "value": "about twenty fold"}
    ]},
    {"smiles": "Nc1nc(=O)n([C@@H]2CS[C@H](CO)O2)cc1F", "note": "[FTC, (-)-2'3'-dideoxy-5-fluoro-3'-thiacytidine]", "values": [
      {"measurement": "pIC50", "setting": "[1]", "value": "< 3.30"},
      {"measurement": "acquisition of resistance by HIV", "setting": "HIV", "value": "rapid resistance"},
      {"measurement": "pIC50", "setting": "[3]", "value": 6.19}
    ]},
    {"smiles": "Nc1ccn([C@H]2CS[C@@H](CO)O2)c(=O)n1", "note": "[3TC, (-)-2',3'-dideoxy-3'-thiacytidine]", "values": [
      {"measurement": "acquisition of resistance by HIV", "setting": "HIV", "value": "rapid resistance"}
    ]}
  ]
}
